Experimental data: patent US8685392B2 (priority 2009, dated 2014)

Columns and labels:
[1] = system: gliadin-degrading enzymes of strain WSA-2B
Experimental: (§1) Saliva ion buffer contains 50 mM KCl, 1 mM K2HPO4, 1 mM CaCl2 and 0.1 mM MgCl2 (pH 6.5). Cells were preincubated with the inhibitors for 15 min at room temperature prior to the addition of substrate. Z-YPQ-pNA hydrolysis was followed at 405 nm. Initial velocities of the enzymatic reaction are plotted.
(§2) Inhibitory effects were monitored toward the capacity to hydrolyze Z-YPQ-pNA. The initial rate of substrate proteolysis (Vi) was determined during the first 30 minute incubation time interval.

[2] = system: gliadin-degrading enzymes of strain WSA-8
Experimental: as §1, §2

## Cl.NCCc1ccc(S(=O)(=O)F)cc1 [AEBSF, 4-(2-Aminoethyl) benzenesulfonyl fluoride hydrochloride]
[1]
  inhibition of Z-YPQ-pNA hydrolysis (initial rate Vi) in WSA-2B: 97%
[2]
  inhibition of Z-YPQ-pNA hydrolysis (initial rate Vi) in WSA-8: 78%
